The values below come from US8796258B2, “Cyclic azabenzimidazole derivatives useful as anti-diabetic agents” (Merck Sharp & Dohme Corp., priority 2011, dated 2014).

What is called EC50 is the concentration that produces a half-maximal response.

One assay concerns ob/ob and db/db mice. Conditions: cited from earlier work.
The subject of assay [1] is rats displaying characteristics of insulin resistance syndrome. As to conditions: rat, in vivo; cited from earlier work.
In assay [2] the test system is obese Zucker (fa/fa) rats. Conditions: 7 week administration; cited from earlier work.
The target in assay [3] is T1, recombinant human AMPK complex 1 (containing α1β1γ1) (Homo sapiens, UniProt Q13131+Q9Y478).
T1 construct: made in house; host or cells: Spodoptera frugiperda Sf21 cells, baculovirus (pBacPak9 clones, triple infection)
T1 sequence (Q13131 whole entry): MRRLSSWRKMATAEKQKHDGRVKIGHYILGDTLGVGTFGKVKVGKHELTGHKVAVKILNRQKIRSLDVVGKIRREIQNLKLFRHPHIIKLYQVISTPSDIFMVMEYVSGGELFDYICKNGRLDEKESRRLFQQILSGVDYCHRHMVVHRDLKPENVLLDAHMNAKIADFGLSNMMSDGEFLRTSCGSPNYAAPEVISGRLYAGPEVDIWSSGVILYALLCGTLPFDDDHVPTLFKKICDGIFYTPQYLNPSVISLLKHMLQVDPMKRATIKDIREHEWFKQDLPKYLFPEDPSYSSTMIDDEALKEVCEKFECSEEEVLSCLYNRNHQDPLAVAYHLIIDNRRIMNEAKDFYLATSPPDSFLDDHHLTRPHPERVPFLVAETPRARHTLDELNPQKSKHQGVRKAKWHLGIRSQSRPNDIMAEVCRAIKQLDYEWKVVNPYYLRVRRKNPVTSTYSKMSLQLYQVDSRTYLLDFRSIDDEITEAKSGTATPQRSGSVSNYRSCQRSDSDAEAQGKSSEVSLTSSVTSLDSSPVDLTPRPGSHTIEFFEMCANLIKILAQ
T1 sequence (Q9Y478 whole entry): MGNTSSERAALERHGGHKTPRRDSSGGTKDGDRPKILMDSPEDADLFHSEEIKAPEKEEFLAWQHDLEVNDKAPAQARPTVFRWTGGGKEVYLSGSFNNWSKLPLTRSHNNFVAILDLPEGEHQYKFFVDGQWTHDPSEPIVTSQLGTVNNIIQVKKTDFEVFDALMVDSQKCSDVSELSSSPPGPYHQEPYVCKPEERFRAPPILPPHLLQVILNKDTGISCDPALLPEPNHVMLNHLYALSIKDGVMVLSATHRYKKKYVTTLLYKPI
T1 sequence (P54619 whole entry partner): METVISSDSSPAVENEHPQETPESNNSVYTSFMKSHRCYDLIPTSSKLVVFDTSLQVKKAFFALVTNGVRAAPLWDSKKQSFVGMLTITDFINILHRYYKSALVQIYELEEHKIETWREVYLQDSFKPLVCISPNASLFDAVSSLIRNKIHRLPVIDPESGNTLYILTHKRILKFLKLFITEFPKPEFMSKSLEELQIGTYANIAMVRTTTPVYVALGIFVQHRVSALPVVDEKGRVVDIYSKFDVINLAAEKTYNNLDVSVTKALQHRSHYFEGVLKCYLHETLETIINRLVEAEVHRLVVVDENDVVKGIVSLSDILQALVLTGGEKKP
Kind of assay: AMPKSAMSF in vitro AMPK activation assay. Format: biochemical. As to conditions: recombinant human AMPK complex 1 (α1β1γ1); for Emax: 10-point titration, read-out: % Maximum AMP Activation of human AMPK Complex 1; for EC50: inflection point reflecting 50% of the maximum activation. Here is the method: The recombinant human AMPK complex 1 (containing α1β1γ1) was obtained from baculovirus expression system. Recombinant viruses were generated by cotransfection of AMPK/pBacPak9 clones with Baculogold baculovirus DNA (Pharmingen) in spodoptera frugiperda 21 cells according to the manufacturer's instructions. Each round of virus amplification was performed for 5 days in Grace's medium containing 10% serum. Virus that had been subjected to three rounds of amplification was used for all protein production procedures. To express the AMPK complex, sf21 cells were adapted to serum free medium (SF900 II, Invitrogen) by sequential dilution from serum containing stocks into SF9001I medium and maintained in shaker flasks at 90 rpm at 27° C. The recombinant AMPK enzyme complex was produced by triple infection, one recombinant virus for each of the subunits, in sf21 cells under serum free conditions. Cells were infected in log phase, 1×10^6 cells/ml, at a multiplicity of infection of […]. Cells were harvested by centrifugation at 10,000×g for 15 minutes after 72 hours of infection with viruses. The insect cell pellet from 2 liters of culture was resuspended in 50 ml lysis buffer (20 mM Tris-HCl, 50 mM NaCl, 50 mM NaF, 30 mM Na PPi, 0.25 M sucrose, 10 mM ZnCl2, 2 mM DTT, 0.4 mg/ml digitonin) and subjected to two cycles of freeze-thaw lysis in a dry-ice ethanol bath. Insoluble material was removed by centrifugation at 10,000×g and the supernatant was fractionated with use of polyethylene glycol (PEG). The protein fraction precipitating between 2.5 and 6% PEG was used for further purification using a Blue-Sepharose step (Zhou et al, J. Clin. Invest. 108, 1167-1174, 2001).
The in vitro AMPK activation assay is performed in a volume of 30 μl in a 384-well plate. Enzyme reactions were assembled in the microtiter plate by adding 15 μl of 2× enzyme in assay buffer (20 mM HEPES, pH 7.3, 5 mM MgCl2, 3 mM DTT, 0.01% Brij 35 and CamK Kinase, to activate AMPK) to wells which contained either DMSO or compound. The reaction was initiated with the addition of 15 μl 2× substrate mixture containing 200 μM ATP, and 3.0 μM fluorescently labeled SAMS (5-FAM-HMRSAMSGLHLVKRR-COOH) in assay buffer. After 45-minute incubation at 25° C., the reaction was stopped by the addition of 70 μl stop buffer (100 mM HEPES, pH 7.3, 40 mM EDTA, 0.015% Brij 35). Phosphorylated 5-FAM SAMS product is assessed using a Caliper EZ Reader LabChip microfluidics reader. Product conversion is determined by calculating the peak heights of the substrate and product and reporting the product/(product+substrate) peak ratio. The 10-point titration data were expressed as % maximum AMP activation. The results were plotted using 4 parameter fit and the inflection point reflecting 50% of the maximum activation was reported as the EC50.

As to `NC(=O)c1ncn([C@@H]2O[C@H](CO)[C@@H](O)[C@H]2O)c1N` [AICAR], the glucose homeostasis result in the assay on ob/ob and db/db mice (insulin-resistant diabetic (ob/ob) mice) is listed as “improvement in glucose homeostasis”. For the same molecule, in the assay with ob/ob and db/db mice (ob/ob and db/db mice, following 8 weeks of administration), the blood glucose reduction was 35%. Also, the blood pressure entry in assay [1] is on record as “reduction of blood pressure”. Moreover, in assay [2], the HDL cholesterol result is on record as “increase in HDL cholesterol”; the “glucose metabolism as assessed by an oral glucose tolerance test” value is recorded as “normalization of glucose metabolism”; the “plasma triglycerides and free fatty acids” value was “reduction in plasma triglycerides and free fatty acids”.
Regarding `Cc1ccc(Oc2nc3nc(-c4ccc(N5CCCC5)cc4)c(Cl)cc3[nH]2)cc1C(=O)O` [Example 3], in assay [3], the Emax turned out to be 681% and the half-maximal effective concentration (EC50) stood at 1 nM.
Turning to `O=C(O)[C@H]1CC[C@H](Oc2nc3nc(-c4ccc(-c5ccccc5)cc4)c(Cl)cc3[nH]2)CC1` [Example 29], in assay [3], the Emax came to 798% and the EC50 is 7 nM.
As for `O=C(O)C1CCC(Oc2nc3nc(-c4ccc(N5CCCC5)cc4)c(Cl)cc3[nH]2)CC1` (centres unmarked) [Example 30], in assay [3], the Emax came out at 852%.
Consider `O=C(O)[C@H]1CC[C@H](Oc2nc3nc(-c4ccc(N5CCCC5)cc4)c(Cl)cc3[nH]2)CC1` [Example 30], for which the EC50 in assay [3] was determined as 24 nM.
For `CS(=O)(=O)c1ccc(-c2ccc(-c3nc4nc(O[C@H]5CC[C@H](C(=O)O)CC5)[nH]c4cc3Cl)cc2)cc1` [Example 79, Trans-4-({6-chloro-5-[4′-(methylsulfonyl)biphenyl-4-yl]-1H-imidazo[4,5-b]pyridin-2-yl}oxy)cyclohexanecarboxylic acid], in assay [3], the Emax came out at 661% and the half-maximal effective concentration (EC50) turned out to be 5 nM.
Turning to `OCC1(CO)CC(Oc2nc3nc(-c4ccc(-c5ccccc5)cc4)c(Cl)cc3[nH]2)C1` [Example 111], in assay [3], the Emax was found to be 813% and the EC50 stood at 28 nM.
For the molecule `CC(C)(O)[C@H]1C[C@@H](Oc2nc3nc(-c4ccc(-c5ccc(S(C)(=O)=O)cc5)cc4)c(Cl)cc3[nH]2)C1` [Example 130, 2-[cis-3-({6-chloro-5-[4′-(methylsulfonyl)biphenyl-4-yl]-1H-imidazo[4,5-b]pyridin-2-yl}oxy)cyclobutyl]propan-2-ol], in assay [3], the Emax is 440% and the EC50 came to 47 nM.
In the case of `OC[C@H]1OC[C@H](Oc2nc3nc(-c4ccc(-c5ccccc5)cc4)c(Cl)cc3[nH]2)C[C@@H]1O` [Example 140, (2R3S,5R)-5-[[6-chloro-5-(4-phenylphenyl)-1H-imidazo[4,5-b]pyridin-2-yl]oxy]-2-(hydroxymethyl)tetrahydropyran-3-ol], in assay [3], the Emax is 668% and the EC50 came out at 38 nM.
For `O[C@@H]1CO[C@H]2[C@@H]1OC[C@H]2Oc1nc2nc(-c3ccc(-c4ccccc4)cc3)c(Cl)cc2[nH]1` [Example 159, 1,4:3,6-dianhydro-2-O-[5-(biphenyl-4-yl)-6-chloro-1H-imidazo[4,5-b]pyridin-2-yl]-D-mannitol], in that order: 373% and 4 nM.
On to `O[C@@H]1CO[C@H]2[C@@H]1OC[C@H]2Oc1nc2nc(-c3ccc(-c4ccc(-n5cccn5)cc4)cc3)c(Cl)cc2[nH]1` [Example 163, (3R,3aR,6R,6aR)-6-[[6-chloro-5-[4-(4-pyrazol-1-ylphenyl)phenyl]-1H-imidazo[4,5-b]pyridin-2-yl]oxy]-2,3,3a,5,6,6a-hexahydrofuro[3,2-b]furan-3-ol], for which, in assay [3], the Emax was 362% and the EC50 is 0.3 nM.
For `CC(C)(O)Cn1cc2c(n1)CN(c1ccc(-c3nc4nc(O[C@@H]5CO[C@H]6[C@@H]5OC[C@H]6O)[nH]c4cc3Cl)cc1)C2` [Example 171, (3R,3aR,6R,6aR)-6-[[6-chloro-5-[4-[2-(2-hydroxy-2-methyl-propyl)-4,6-dihydropyrrolo[3,4-c]pyrazol-5-yl]phenyl]-1H-imidazo[4,5-b]pyridin-2-yl]oxy]-2,3,3a,5,6,6a-hexahydrofuro[3,2-b]furan-3-ol], in that order: 252% and 1 nM.
Take `CC(C)(F)Cn1cc2c(n1)CN(c1ccc(-c3nc4nc(O[C@@H]5CO[C@H]6[C@@H]5OC[C@H]6O)[nH]c4cc3Cl)cc1)C2` [Example 172]: in assay [3], the Emax stood at 249% and the EC50 came out at 2 nM.
`O[C@@H]1CO[C@H]2[C@@H]1OC[C@H]2Oc1nc2nc(-c3ccc(-n4cc5c(n4)CNC5)cc3)c(Cl)cc2[nH]1` [Example 177]: in assay [3], the Emax was found to be 368% and the EC50 is 18 nM.
Consider `O=S(=O)(NC1CC1)n1cc2c(n1)CN(c1ccc(-c3nc4nc(O[C@@H]5CO[C@H]6[C@@H]5OC[C@H]6O)[nH]c4cc3Cl)cc1)C2` [Example 178], for which, in assay [3], the Emax came out at 223% and the EC50 came to 1 nM.
On to `O[C@@H]1CO[C@H]2[C@@H]1OC[C@H]2Oc1nc2nc(-c3ccc(-c4ccc(-n5cccn5)nc4)cc3)c(Cl)cc2[nH]1` [Example 179, (3R,3aR,6R,6aR)-6-[[6-chloro-5-[4-(6-pyrazol-1-yl-3-pyridyl)phenyl]-1H-imidazo[4,5-b]pyridin-2-yl]oxy]-2,3,3a,5,6,6a-hexahydrofuro[3,2-b]furan-3-ol], for which, in assay [3], the Emax was 292% and the EC50 was found to be 0.9 nM.
For `O[C@@H]1CO[C@H]2[C@@H]1OC[C@H]2Oc1nc2nc(-c3ccc(-c4ccc(-n5cncn5)cc4)cc3)c(Cl)cc2[nH]1` [Example 180, (3R,3a,6R,6aR)-6-[[6-chloro-5-[4-[4-(1,2,4-triazol-1-yl)phenyl]phenyl]-1H-imidazo[4,5-b]pyridin-2-yl]oxy]-2,3,3a,5,6,6a-hexahdrofuro[3,2-b]furan-3-ol], in assay [3], the Emax came to 350% and the EC50 came to 0.3 nM.
For `CC(C)(O)Cc1cnn(-c2ccc(-c3ccc(-c4nc5nc(O[C@@H]6CO[C@H]7[C@@H]6OC[C@H]7O)[nH]c5cc4Cl)cc3)cc2)c1` [Example 190], in assay [3], the Emax was found to be 374% and the EC50 was determined as 1 nM.
For `CC(C)(O)Cc1cnn(-c2ccc(-c3ccc(-c4nc5nc(O[C@@H]6CO[C@H]7[C@@H]6OC[C@H]7O)[nH]c5cc4Cl)cc3)nc2)c1` [Example 202, (3R,3aR,6R,6aR)-6-[[6-chloro-5-[4-[5-[4-(2-hydroxy-2-methyl-propyl)pyrazol-1-yl]-2-pyridyl]phenyl]-1H-imidazo[4,5-b]pyridin-2-yl]oxy]-2,3,3a,5,6,6a-hexahydrofuro[3,2-b]furan-3-ol], in that order: 372% and 1 nM.
Turning to `O[C@@H]1CO[C@@H]2C(Oc3nc4nc(-c5ccc(-c6ccc(-c7nnn[nH]7)cc6)cc5)c(Cl)cc4[nH]3)CO[C@H]12` (stereo partly drawn) [Example 207, (3R,3aR,6R,6R)-6-[[6-chloro-5-[4-[4-(1H-tetrazol-5-yl)phenyl]phenyl]-1H-imidazo[4,5-b]pyridin-2-yl]oxy]-2,3,3a,5,6,6a-hexahydrofuro[3,2-b]furan-3-ol], in assay [3], the Emax amounted to 289% and the EC50 came out at 0.5 nM.
With `O[C@@H]1CO[C@H]2[C@@H]1OC[C@H]2Oc1nc2nc(-c3ccc(C#CC4CCNCC4)cc3)c(Cl)cc2[nH]1` [Example 214, (3R,3aR,6R,6aR)-6-((6-chloro-5-(4-(piperidin-4-ylethynyl)phenyl)-1H-imidazo[4,5-b]pyridin-2-yl)oxy)hexahydrofuro[3,2-b]furan-3-ol], in assay [3], the Emax was determined as 386% and the EC50 was determined as 6 nM.
